Source: ChEMBL document CHEMBL1147786, “Synthesis and evaluation of a mechanism-based inhibitor of a 3-deoxy-D-arabino heptulosonate 7-phosphate synthase” (Bioorg Med Chem Lett, 2006)

Test: Inhibition of Escherichia coli DAH7P synthase

IC50: 6.6 µM
SMILES: O=C(O)CN(C[C@H](O)[C@@H](O)[C@@H](O)COP(=O)(O)O)CP(=O)(O)O
